Measurements reported in patent US20060039869A1, “Intranasal delivery of antipsychotic drugs” (priority 2004, published 2006).
“And” between values parts separate entries of the source, which are not always exact repeats. Equal values may be shown once. Read-outs that look alike come from different tables or passages of the source.

Columns and labels:
[1] = cited from earlier work
clinical = conditions: human, plasma, 2.5 mg; for Cmax: n=4, mean (CV %)
[2] = for Tmax: healthy subjects n=4, median (range)

AUC(0-inf) (clinical; both, im): 81.8 ng·h/mL | AUC(0-t) (clinical; both, im): 59.7 ng·h/mL | MRT (clinical; both, im): 16.1 h | Tmax (clinical; both, im): 0.625 h | Vd/F (clinical; both, im): 1360 L | half-life (clinical; both, im): 28.8 h | Cmax (clinical; both, im, IM 2.5 mg): 8.42 ng/mL | bioavailability (clinical; both, intramuscular): 134% | AUC(0-inf) (clinical; both, iv): 60.4 ng·h/mL | AUC(0-t) (clinical; both, iv): 50.8 ng·h/mL | MRT (clinical; both, iv): 12.7 h | Tmax (clinical; both, iv): 0.25 h | Vd (clinical; both, iv): 934 L | half-life (clinical; both, iv): 17.1 h | Cmax (clinical; both, iv, IV 2.5 mg): 23.3 ng/mL | AUC(0-inf) (clinical; both, other: intranasal): 37.9 ng·h/mL | AUC(0-t) (clinical; both, other: intranasal): 31.7 ng·h/mL | MRT (clinical; both, other: intranasal): 12.9 h | Tmax (clinical; both, other: intranasal): 0.25 h | Vd/F (clinical; both, other: intranasal): 1580 L | bioavailability (clinical; both, other: intranasal): 63.8% | half-life (clinical; both, other: intranasal): 16.9 h | Cmax (clinical; both, other: intranasal, IN 2.5 mg): 9.8 ng/mL | Tmax (clinical; im): 16 h | Tmax ([2]; IM 2.5 mg): 0.625 (0.25-16) h | Cmax after intranasal dose compared with intramuscular dose ([2]; IN 2.5 mg vs IM 2.5 mg): slightly higher | Tmax ([2]; IN 2.5 mg): 0.25 (0.12-0.5) h | Cmax, individual subjects ([2]; IN 2.5 mg, single subjects): 16.2 ng/mL and 7.5 to 7.9 ng/mL | half-lives, intravenous and intranasal ([2]; IV vs IN 2.5 mg): similar
Structure (SMILES): O=C(CCCN1CCC(O)(c2ccc(Cl)cc2)CC1)c1ccc(F)cc1 [haloperidol lactate, haloperidol]
time of peak plasma concentration ([1]; intramuscular administration): approximately 20 minutes | absolute bioavailability ([1]; oral administration): approximately 65% | time at which haloperidol concentrations reached a peak, individual subjects ([2]; IN 2.5 mg, single subjects): 7.5 min and 15 min and 30 min
